Where “and” joins values, the source holds several entries; their conditions need not be identical. Identical values can stand only once. Counter-ions that a name gives are not always drawn.
What was measured:
ULK3 = molecular target: T1, ULK3 (Homo sapiens, UniProt Q6PHR2); experiment: DSF (ULK3) thermal shift; type: binding
T1 sequence (Q6PHR2 1-472): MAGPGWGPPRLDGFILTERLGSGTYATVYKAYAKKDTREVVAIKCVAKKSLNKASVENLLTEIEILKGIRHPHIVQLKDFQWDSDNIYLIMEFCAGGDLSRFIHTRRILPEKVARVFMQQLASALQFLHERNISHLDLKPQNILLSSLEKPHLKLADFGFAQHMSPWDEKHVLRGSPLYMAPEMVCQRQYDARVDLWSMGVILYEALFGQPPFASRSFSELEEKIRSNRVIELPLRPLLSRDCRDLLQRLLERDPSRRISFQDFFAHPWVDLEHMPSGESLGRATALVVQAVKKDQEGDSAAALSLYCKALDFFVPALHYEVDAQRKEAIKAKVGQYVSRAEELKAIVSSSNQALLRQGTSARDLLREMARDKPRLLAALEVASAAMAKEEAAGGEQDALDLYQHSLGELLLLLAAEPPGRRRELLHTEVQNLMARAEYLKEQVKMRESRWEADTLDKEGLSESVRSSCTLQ

JAK2 [1] = molecular target: T2, JAK2 (Homo sapiens, UniProt O60674); experiment: DSF (JAK2) thermal shift; type: binding
T2 sequence (O60674 whole entry): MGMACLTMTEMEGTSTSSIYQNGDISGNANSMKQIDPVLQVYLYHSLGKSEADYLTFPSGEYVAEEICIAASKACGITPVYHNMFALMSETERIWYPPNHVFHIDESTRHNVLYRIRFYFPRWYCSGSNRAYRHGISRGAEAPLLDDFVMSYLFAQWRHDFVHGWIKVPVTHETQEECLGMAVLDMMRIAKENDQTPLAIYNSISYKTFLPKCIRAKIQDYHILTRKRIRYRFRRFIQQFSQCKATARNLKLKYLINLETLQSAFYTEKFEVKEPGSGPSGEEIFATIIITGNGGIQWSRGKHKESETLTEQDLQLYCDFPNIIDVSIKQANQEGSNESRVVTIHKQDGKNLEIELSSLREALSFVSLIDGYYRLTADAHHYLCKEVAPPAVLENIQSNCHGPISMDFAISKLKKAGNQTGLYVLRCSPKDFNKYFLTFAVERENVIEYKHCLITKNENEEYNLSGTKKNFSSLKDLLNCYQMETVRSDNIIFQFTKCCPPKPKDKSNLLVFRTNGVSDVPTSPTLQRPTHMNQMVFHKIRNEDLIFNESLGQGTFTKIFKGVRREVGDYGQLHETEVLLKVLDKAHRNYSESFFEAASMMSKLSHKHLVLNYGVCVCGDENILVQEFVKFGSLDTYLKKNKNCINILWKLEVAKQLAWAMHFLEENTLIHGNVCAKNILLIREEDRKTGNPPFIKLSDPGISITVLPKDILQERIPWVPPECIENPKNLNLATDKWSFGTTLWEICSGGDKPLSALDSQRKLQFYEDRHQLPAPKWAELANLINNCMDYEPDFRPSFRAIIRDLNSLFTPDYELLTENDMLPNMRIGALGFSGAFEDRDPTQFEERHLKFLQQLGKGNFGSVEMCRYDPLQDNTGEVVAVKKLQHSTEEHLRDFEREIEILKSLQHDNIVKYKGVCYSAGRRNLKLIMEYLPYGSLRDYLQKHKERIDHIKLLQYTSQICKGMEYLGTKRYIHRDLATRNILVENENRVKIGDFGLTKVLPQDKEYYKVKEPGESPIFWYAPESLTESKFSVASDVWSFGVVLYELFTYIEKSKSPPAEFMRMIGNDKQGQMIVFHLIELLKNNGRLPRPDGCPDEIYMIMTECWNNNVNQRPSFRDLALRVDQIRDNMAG

JAK2 [2] = molecular target: T2, JAK2; experiment: IC50 for JAK2, Reaction Biology kinase assay (32P Hotspot assay); type: biochemical

| Molecule | DSF (ULK3) ΔTm (° C.) (ULK3) | DSF (JAK2) ΔTm (° C.) (JAK2 [1]) [°C] | IC50 (JAK2 [2]) [pM] |
| --- | --- | --- | --- |
| 2-Fluoro-N-methyl-4-((4-(4-((2,2,2-trifluoroethyl)carbamoyl)phenyl)pyrimidin-2-yl) amino)benzamide [BH1-106] | 9.9 °C | 0.54 | – |
| CN1CCN(c2ccc(Nc3ncc(F)c(-c4ccc(C(=O)NCC#N)cc4)n3)cc2F)CC1 [BH1-095] | 8.8 °C | – | – |
| Cc1cnc(Nc2ccc(CN3CCN(C)CC3)cc2)nc1-c1ccc(C(=O)NCC#N)cc1 [BH1-102] | 7.2 °C | 4.68 | – |
| COC(=O)c1ccc(Nc2nccc(-c3ccc(C(=O)NCC(F)(F)F)cc3)n2)cc1F [BH1-104, Methyl 2-fluoro-4-((4-(4-((2,2,2-trifluoroethyl)carbamoyl)phenyl)pyrimidin-2-yl)amino)benzoate] | 6.9 °C | 0.05 | – |
| COc1cc(N2CCOCC2)ccc1Nc1nccc(-c2ccc(C(=O)NCC(F)(F)F)cc2)n1 [BH1-132, 4-(2-((2-Methoxy-4-morpholinophenyl)amino)pyrimidin-4-yl)-N-(2,2,2-trifluoroethyl)benzamide] | 10.0 °C | 0.1 | – |
| O=C(NCC(F)(F)F)c1ccc(-c2ccnc(Nc3ccc(N4CCOCC4)c(F)c3)n2)cc1 [BH1-138, 4-(2-((3-Fluoro-4-morpholinophenyl)amino)pyrimidin-4-yl)-N-(2,2,2-trifluoroethyl)benzamide] | – | 0.5 | – |
| CN1CCN(c2cccc(Nc3nccc(-c4ccc(C(=O)NCC(F)(F)F)cc4)n3)c2)CC1 [BH2-010, 4-(2-((3-(4-Methylpiperazin-1-yl)phenyl)amino)pyrimidin-4-yl)-N-(2,2,2-trifluoroethyl)benzamide] | 14.4 °C | – | – |
| CN1CCN(c2cccc(Nc3nccc(-c4ccc(C(=O)N5CCC[C@@H]5C(F)(F)F)cc4)n3)c2)CC1 [BH2-011, (R)-(4-(2-((3-(4-Methylpiperazin-1-yl)phenyl)amino)pyrimidin-4-yl)phenyl) (2-(trifluoromethyl)pyrrolidin-1-yl) methanone] | 14.5 °C and 14.4 °C | – | – |
| CN1CCN(c2cccc(Nc3nccc(-c4ccc(C(=O)N5CCC[C@H]5C(F)(F)F)cc4)n3)c2)CC1 [BH2-013, (S)-(4-(2-((3-(4-Methylpiperazin-1-yl)phenyl)amino)pyrimidin-4-yl)phenyl) (2-(trifluoromethyl)pyrrolidin-1-yl) methanone] | 10.9 °C | – | – |
| N#CCNC(=O)c1ccc(-c2ncnc3[nH]ccc23)cc1 [BL4-136] | 5.1 °C | 1 | – |
| COC[C@H](Cc1ccccc1)NC(=O)c1ccc(-c2ccnc(Nc3ccc(N4CCOCC4)cc3)n2)cc1 [BR1-012] | 5.8 °C | 0.1 | – |
| O=C(NCC(F)(F)F)c1ccc(-c2ccnc(Nc3cccc(N4CCOCC4)c3)n2)cc1 [BR1-045, 4-(2-((3-Morpholinophenyl)amino)pyrimidin-4-yl)-N-(2,2,2-trifluoroethyl)benzamide] | 14.7 °C | – | – |
| O=C(c1ccc(-c2ccnc(Nc3cccc(N4CCOCC4)c3)n2)cc1)N1CCC[C@@H]1C(F)(F)F [BR1-047] | 13.4 °C | – | – |
| O=C(c1ccc(-c2ccnc(Nc3cccc(N4CCOCC4)c3)n2)cc1)N1CCC[C@H]1C(F)(F)F [BR1-048] | 9.3 °C | – | – |
| CN1CCN(c2cc(F)cc(Nc3nccc(-c4ccc(C(=O)NCC(F)(F)F)cc4)n3)c2)CC1 [BR1-051] | 11.1 °C | – | – |
| CN1CCN(c2cc(F)cc(Nc3nccc(-c4ccc(C(=O)N5CCC[C@@H]5C(F)(F)F)cc4)n3)c2)CC1 [BR1-052] | 14.1 °C | – | – |
| CN1CCN(c2cc(F)cc(Nc3nccc(-c4ccc(C(=O)N5CCC[C@H]5C(F)(F)F)cc4)n3)c2)CC1 [BR1-053] | 10.5 °C | – | – |
| O=C(NCC(F)(F)F)c1ccc(-c2ccnc(Nc3ccc(N4CCOCC4)cc3N3CCOCC3)n2)cc1 [BR1-054] | 1.3 °C | – | – |
| N#CCNC(=O)c1ccc(-c2nc(Nc3ccc(N4CCOCC4=O)cc3)ncc2F)cc1 [GM1-036BA2, N-(Cyanomethyl)-4-(5-fluoro-2-((4-(3-oxomorpholino)phenyl)amino)pyrimidin-4-yl)benzamide] | 8.7 °C | 1.1 | – |
| CN1CCC(c2ccc(Nc3ncc(F)c(-c4ccc(C(=O)NCC#N)cc4)n3)cc2F)CC1 [GM1-064, N-(Cyanomethyl)-4-(5-fluoro-2-((3-fluoro-4-(1-methylpiperidin-4-yl)phenyl)amino)pyrimidin-yl)benzamide] | 8.0 °C | 3.68 | – |
| CS(=O)(=O)O.Cc1cnc(Nc2ccc(C3CCN(C)CC3)c(F)c2)nc1Nc1ccc(Cl)c(NS(=O)(=O)C(C)(C)C)c1 [MA9-060, reference compound] | 11.9 °C and 12.6 °C | – | – |
| Cc1cnc(Nc2ccc(C(=O)NC3CCN(C)CC3)c(F)c2)nc1Nc1ccc(Cl)c(NS(=O)(=O)C(C)(C)C)c1 [SG3-179, reference compound] | 10.6 °C | – | – |

Results, then the molecule that gave them:

| DSF (ULK3) ΔTm (° C.) (ULK3) | DSF (JAK2) ΔTm (° C.) (JAK2 [1]) [°C] | IC50 (JAK2 [2]) [pM] | Molecule |
| --- | --- | --- | --- |
| 7.9 °C | 3.6 | – | CC(C)[C@H](CO)NC(=O)c1ccc(-c2ccnc(Nc3ccc(N4CCOCC4)cc3)n2)cc1 [BH1-063, (R)—N-(1-Hydroxy-3-methylbutan-2-yl)-4-(2-((4-morpholinophenyl)amino)pyrimidin-4-yl)benzamide] |
| 7.5 °C | 1.3 | – | N#CCNC(=O)c1ccc(-c2ccnc(Nc3ccc(N4CCOCC4=O)cc3)n2)cc1 [BH1-090, N-(Cyanomethyl)-4-(2-((4-(3-oxomorpholino)phenyl)amino)pyrimidin-4-yl)benzamide] |
| 14.3 °C and 9.9 °C | – | – | N#CCNC(=O)c1ccc(-c2ccnc(Nc3ccc(N4CCOCC4)cc3)n2)cc1 [BL4-106 HCl salt, reference compound] |
| 15.0 °C | – | < 510 | N#CCNC(=O)c1ccc(-c2nc(Nc3ccc(N4CCOCC4)cc3)nc3[nH]ccc23)cc1 [BL4-139] |
| 11.6 °C | – | – | N#CC(NC(=O)c1ccc(-c2ccnc(Nc3ccc(N4CCOCC4)cc3)n2)cc1)c1ccccc1 (stereo not drawn) [BL4-153, N-(Cyano (phenyl)methyl)-4-(2-((4-morpholinophenyl)amino)pyrimidin-4-yl)benzamide] |
| 9.1 °C | – | – | O=C(N[C@H](CO)Cc1ccccc1)c1ccc(-c2ccnc(Nc3ccc(N4CCOCC4)cc3)n2)cc1 [BR1-034, (S)—N-(1-Hydroxy-3-phenylpropan-2-yl)-4-(2-((4-morpholinophenyl)amino)pyrimidin-4-yl)benzamide] |
| 9.8 °C | – | – | COC[C@@H](NC(=O)c1ccc(-c2ccnc(Nc3ccc(N4CCOCC4)cc3)n2)cc1)c1ccccc1 [BR1-036, (S)—N-(2-Methoxy-1-phenylethyl)-4-(2-((4-morpholinophenyl)amino)pyrimidin-4-yl)benzamide] |
| 8.4 °C | – | – | COC[C@H](NC(=O)c1ccc(-c2ccnc(Nc3ccc(N4CCOCC4)cc3)n2)cc1)c1ccccc1 [BR1-038, (R)—N-(2-Methoxy-1-phenylethyl)-4-(2-((4-morpholinophenyl)amino)pyrimidin-4-yl)benzamide] |
| 8.1 °C | 5.5 | – | Cc1cnc(Nc2ccc(N3CCOCC3=O)cc2)nc1-c1ccc(C(=O)NCC#N)cc1 [GM1-030, N-(Cyanomethyl)-4-(5-methyl-2-((4-(3-oxomorpholino)phenyl)amino)pyrimidin-4-yl)benzamide] |
| 8.4 °C | – | – | Cc1cnc(Nc2ccc(N3CCOCC3)cc2)nc1-c1ccc(C(=O)NCC#N)cc1 [GM1-032, N-(Cyanomethyl)-4-(5-methyl-2-((4-(morpholino)phenyl)amino)pyrimidin-4-yl)benzamide] |
| 10.6 °C | – | – | N#CCNC(=O)c1ccc(-c2nc(Nc3ccc(N4CCOCC4)cc3)ncc2F)cc1 [GM1-034, N-(Cyanomethyl)-4-(5-fluoro-2-((4-morpholinophenyl)amino)pyrimidin-4-yl)benzamide] |
| 11.0 °C and 13.1 °C | 6.48 | – | N#CCNC(=O)c1ccc(-c2nc(Nc3ccc(N4CCOCC4)cc3)ncc2Cl)cc1 [GM1-048, 4-(5-Chloro-2-((4-morpholinophenyl)amino)pyrimidin-4-yl)-N-(cyanomethyl)benzamide] |
| 11.8 °C | – | – | N#CCNC(=O)c1ccc(-c2nc(Nc3ccc(N4CCOCC4=O)cc3)ncc2Cl)cc1 [GM1-072, 4-(5-Chloro-2-((4-(3-oxomorpholino)phenyl)amino)pyrimidin-4-yl)-N-(cyanomethyl)benzamide] |
| 14.3 °C and 10.6 °C and 13.2 °C | – | – | N#CCNC(=O)c1ccc(-c2ccnc(Nc3ccc(N4CCOCC4)cc3)n2)cc1 [Momelotinib (BL4-106), Momelotinib, reference compound] |
| – | – | 745 | O=C(NCC(F)(F)F)c1ccc(-c2nc(Nc3ccc(N4CCOCC4)cc3)nc3[nH]ccc23)cc1 [RF1-046, 4-(2-((4-Morpholinophenyl)amino)-7H-pyrrolo[2,3-d]pyrimidin-4-yl)-N-(2,2,2-trifluoro-ethyl)benzamide] |
| 6.8 °C | – | – | CN1CCC(c2cnc(Nc3nc(-c4ccc(C(=O)NCC#N)cc4)c4cc[nH]c4n3)cc2F)CC1 [RF1-058, N-(Cyanomethyl)-4-(2-((4-fluoro-5-(1-methylpiperidin-4-yl)pyridin-2-yl)amino)-7H-pyrrolo-[2,3-d]pyrimidin-4-yl)benzamide] |
